Data reported in PubChem BioAssay AID1918999 (Molecular Pharmacology Branch, DTP, NCI, 2023).

Test system: 556581-035-R-J1-PDC complex spheroid growth
Experiment: Anticancer human tumor 556581-035-R-J1-PDC patient-derived ovarian carcinoma cell line growth inhibition [AhR]
Conditions: for IC50: curve of first compound; for viability, T/C: stronger effect = lower value
Description: Multicellular complex tumor spheroid response to aryl hydrocarbon receptor antagonists in combination with a variety of drugs and investigational agents in selected tumor cell lines
The current study was undertaken to assess response to aryl hydrocarbon receptor antagonists in combination with standard-of-care drugs and investigational agents in solid tumor complex spheroid models. Complex spheroids include a stromal component modeled by human endothelial cells (HUVEC) and fibroblasts modeled by human mesenchymal stem cells (MSCs). The concentration ranges selected for each drug and investigational agent were based upon clinically achievable concentrations if the clinical Cmax of the agent was known.
Compounds. The drugs and investigational agents: BAY 2416964 (NSC825713), GNF351 (NSC835774), CH-223191 (NSC835775), CPI-455 (NSC825282), aza-TdCyd (NSC777586), decitabine (NSC127716), belinostat (NSC758774), entinostat (NSC756642), pevonedistat (NSC761192), tazemetostat (NSC777109), talazoparib (NSC765396), olaparib (NSC753686), selinexor (NSC780203), nedisertib (M3814, NSC802822), bortezomib (NSC756655), venetoclax (NSC766270), doxorubicin (NSC123127), elimusertib (BAY189344, NSC800525), ceralasertib (AZD6738, NSC777638), TAK-243 (NSC785004), alisertib (NSC759677), etoposide (NSC141540), topotecan (NSC609699), eribulin (NSC707389), gemcitabine (NSC613327), carboplatin (NSC241240), cisplatin (NSC119875), and SN-38 (NSC673596) were obtained from the National Cancer Institute (NCI) Developmental Therapeutics Program Chemical Repository (32). The FDA-approved anticancer drug set is available from the Developmental Therapeutics Program at https://dtp.cancer.gov/organization/dscb/obtaining/available plates.htm. […] The stock solutions were prepared in dimethyl sulfoxide (DMSO, Sigma-Aldrich, St. Louis, MO, cat. D2650), except for the platinum compounds which were prepared in saline (Quality Biological, Gaithersburg, MD, cat. 114-055-101), at 800-fold the tested concentration and stored at -70 degrees C prior to their use. All drugs and investigational agents were tested over a range starting from a high concentration at or near the clinical Cmax and decreasing in half-log increments. If the clinical Cmax for an agent had not been determined, the highest concentration tested was 10 microM (Table 1).
Cell Culture. All cells were maintained in an incubator at 37 degrees C and 5% CO2 with 95% humidity. The PDC lines were cultured according to standard operating procedures established by the NCI PDMR (https://pdmr.cancer.gov). Briefly, all PDCs were thawed and cultured in Matrigel-coated flasks prepared with a working solution of 1X Ham's F-12 nutrient mix, without supplementation (Invitrogen, Waltham, MA, cat. 11765054), 100 U/mL penicillin-streptomycin (Invitrogen, cat. 15140122), and 2.5% Matrigel (Corning Inc., Corning, NY, cat. 354248) for the first three passages. All PDCs were cultured in complete DMEM/F-12 media containing advanced DMEM/F-12 (Invitrogen, cat. 12634028), 4.9% defined fetal bovine serum, heat inactivated (HyClone Laboratories Inc., Logan, UT, cat. SH30070.03HI), 389 ng/mL hydrocortisone (Sigma-Aldrich, cat. H4001), 9.7 ng/mL human EGF recombinant protein (Invitrogen, cat. PHG0313), 23.4 microg/mL adenine (Sigma-Aldrich, cat. A2786), 97.3 U/mL penicillin-streptomycin (Invitrogen, cat. 15140122), 1.9 mM L-glutamine (Invitrogen, cat. 25030081), and 9.7 microM Y-27632 dihydrochloride (Tocris Bioscience, Bristol, United Kingdom, cat. 1254). The PDCs were cultured in complete DMEM/F12 media without 10 microM Y-27632 dihydrochloride for at least two passages prior to the screen. The established cell lines NCI-H1341 and […] were cultured in DMEM/F-12, HEPES (Invitrogen, cat. 11330032), 5% defined fetal bovine serum (HyClone Laboratories Inc., cat. SH30070.03), ITS premix universal culture supplement [insulin (5 microg/mL), transferrin (5 microg/mL), and selenious acid (5 ng/mL)] […]

[1] = second compound 0.1 µM, first compound 0.0316 µM
[2] = second compound 0.1 µM, first compound 0.1 µM
[3] = second compound 0.1 µM, first compound 0.316 µM
[4] = second compound 0.1 µM, first compound 1 µM
[5] = second compound 0.316 µM, first compound 0.0316 µM
[6] = second compound 0.316 µM, first compound 0.1 µM
[7] = second compound 0.316 µM, first compound 0.316 µM
[8] = second compound 0.316 µM, first compound 1 µM
[9] = second compound 1 µM, first compound 0.0316 µM
[10] = second compound 1 µM, first compound 0.1 µM
[11] = second compound 1 µM, first compound 0.316 µM
[12] = second compound 1 µM, first compound 1 µM
[13] = second compound 3.16 µM, first compound 0.0316 µM
[14] = second compound 3.16 µM, first compound 0.1 µM
[15] = second compound 3.16 µM, first compound 0.316 µM
[16] = second compound 3.16 µM, first compound 1 µM
[17] = second compound 10 µM, first compound 0.0316 µM
[18] = second compound 10 µM, first compound 0.1 µM
[19] = second compound 10 µM, first compound 0.316 µM
[20] = second compound 10 µM, first compound 1 µM
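For viability, T/C in this document: compound exposure lasted 7 days; 100% = DMSO vehicle control growth.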

## O=C(C=Cc1cccc(S(=O)(=O)Nc2ccccc2)c1)NO + Cc1cncc(-c2nc(NCCc3c[nH]c4ccccc34)c3ncn(C(C)C)c3n2)c1
Second compound 0.1 µM
  IC50: 1480 nM
Second compound 0.316 µM
  IC50: 1680 nM
Second compound 1 µM
  IC50: 1420 nM
Second compound 3.16 µM
  IC50: 1460 nM
Second compound 10 µM
  IC50: 938 nM
[1]
  viability, T/C: 106%
[2]
  viability, T/C: 118%
[3]
  viability, T/C: 90.2%
[4]
  viability, T/C: 58%
Second compound 0.1 µM, first compound 3.16 µM
  viability, T/C: 32%
Second compound 0.1 µM, first compound 10 µM
  viability, T/C: 3.96%
[5]
  viability, T/C: 102%
[6]
  viability, T/C: 104%
[7]
  viability, T/C: 87.3%
[8]
  viability, T/C: 69.6%
Second compound 0.316 µM, first compound 3.16 µM
  viability, T/C: 27.9%
Second compound 0.316 µM, first compound 10 µM
  viability, T/C: 3.92%
[9]
  viability, T/C: 111%
[10]
  viability, T/C: 114%
[11]
  viability, T/C: 82.2%
[12]
  viability, T/C: 60.9%
Second compound 1 µM, first compound 3.16 µM
  viability, T/C: 28.9%
Second compound 1 µM, first compound 10 µM
  viability, T/C: 5.09%
[13]
  viability, T/C: 108%
[14]
  viability, T/C: 101%
[15]
  viability, T/C: 87%
[16]
  viability, T/C: 62.5%
Second compound 3.16 µM, first compound 3.16 µM
  viability, T/C: 26.9%
Second compound 3.16 µM, first compound 10 µM
  viability, T/C: 6.45%
[17]
  viability, T/C: 92.2%
[18]
  viability, T/C: 88.8%
[19]
  viability, T/C: 80.1%
[20]
  viability, T/C: 43.5%
Second compound 10 µM, first compound 3.16 µM
  viability, T/C: 24.8%
Second compound 10 µM, first compound 10 µM
  viability, T/C: 4.13%

## Nc1ncn(C2CC(O)C(CO)O2)c(=O)n1 (stereo not given) + CC(CO)NC(=O)c1cc(-c2ccc(Cl)cc2)nn(-c2cnn(C)c2)c1=O
Second compound 0.1 µM
  IC50: > 1000 nM
Second compound 0.316 µM
  IC50: > 1000 nM
Second compound 1 µM
  IC50: > 1000 nM
Second compound 3.16 µM
  IC50: > 1000 nM
Second compound 10 µM
  IC50: > 1000 nM
Second compound 0.1 µM, first compound 0.00316 µM
  viability, T/C: 92.5%
Second compound 0.1 µM, first compound 0.01 µM
  viability, T/C: 89.9%
[1]
  viability, T/C: 84.9%
[2]
  viability, T/C: 77.1%
[3]
  viability, T/C: 78.7%
[4]
  viability, T/C: 70.4%
Second compound 0.316 µM, first compound 0.00316 µM
  viability, T/C: 88.4%
Second compound 0.316 µM, first compound 0.01 µM
  viability, T/C: 95%
[5]
  viability, T/C: 84.3%
[6]
  viability, T/C: 78.4%
[7]
  viability, T/C: 71.9%
[8]
  viability, T/C: 72.4%
Second compound 1 µM, first compound 0.00316 µM
  viability, T/C: 85%
Second compound 1 µM, first compound 0.01 µM
  viability, T/C: 104%
[9]
  viability, T/C: 85.3%
[10]
  viability, T/C: 81.8%
[11]
  viability, T/C: 72.3%
[12]
  viability, T/C: 72.2%
Second compound 3.16 µM, first compound 0.00316 µM
  viability, T/C: 95.4%
Second compound 3.16 µM, first compound 0.01 µM
  viability, T/C: 90.7%
[13]
  viability, T/C: 87.3%
[14]
  viability, T/C: 75.2%
[15]
  viability, T/C: 70.1%
[16]
  viability, T/C: 68.9%
Second compound 10 µM, first compound 0.00316 µM
  viability, T/C: 97.5%
Second compound 10 µM, first compound 0.01 µM
  viability, T/C: 99.6%
[17]
  viability, T/C: 92.3%
[18]
  viability, T/C: 81.8%
[19]
  viability, T/C: 80%
[20]
  viability, T/C: 77.1%
